What all share (assay): Antibacterial activity, microbroth dilution method (MIC)
Assay [1] has as its system Gram-positive Staphylococcus aureus (S. aureus) 29213. Format: cell-based. To be noted: Staphylococcus aureus, Gram-positive S. aureus 29213. The text has this:
(§1) The antibacterial activity from a microbroth dilution method may be presented as the minimum inhibitory concentration (MIC in μg/mL). The MIC value is the lowest concentration of drug which prevents macroscopically visible growth under test conditions.
(§2) Antibacterial activity of test compounds against the super sensitive Gram-negative Escherichia coli (E. coli) BAS849 bacterium, the control Gram-negative E. coli 25922 strain and the Gram-positive Staphylococcus aureus (S. aureus) 29213 bacterium are shown in Table 1.

Assay [2] deals with super sensitive Gram-negative Escherichia coli (E. coli) BAS849. Format: cell-based. The following applies: Escherichia coli; super sensitive Gram-negative E. coli BAS849; microbroth dilution; read-out: MIC, E. coli BAS849.
Excerpt: as §1, §2
On the technique in general: Broth dilution looks for growth in wells or tubes with falling amounts of substance.

Assay [3] relates to control Gram-negative E. coli 25922 strain. Format: cell-based, Escherichia coli. The following applies: Escherichia coli.
Excerpt: as §1, §2

For orientation: MIC means the lowest concentration that inhibits growth of the organism.

Structures are written as SMILES.

Turning to `CCCNCc1cc2cc3c(cc2n1C)CCCc1c-3[nH]c(=O)c(C(=O)O)c1O.Cl` [Cpd 44, 4-hydroxy-9-methyl-2-oxo-10-((propylamino)methyl)-1,2,5,6,7,9-hexahydropyrido[3′,2′:6,7]cyclohepta[1,2-f]indole-3-carboxylic acid hydrochloride], the MIC in assay [1] was 3.5 to 12.5 µg/mL; in assay [2], less than 1 µg/mL; in assay [3], less than 1 µg/mL.

Consider `C#CCNCc1cc2cc3c(cc2n1C)CCCc1c-3[nH]c(=O)c(C(=O)O)c1O.Cl` [Cpd 45, 4-hydroxy-9-methyl-2-oxo-10-((prop-2-yn-1-ylamino)methyl)-1,2,5,6,7,9-hexahydropyrido[3′,2′:6,7]cyclohepta[1,2-f]indole-3-carboxylic acid hydrochloride], for which the MIC was 1 to 3.5 µg/mL in assay [1], less than 1 µg/mL in assay [2] and 1 to 3.5 µg/mL in assay [3].

As to `Cl.Cn1c(CN2CC[C@@H](F)C2)cc2cc3c(cc21)CCCc1c-3[nH]c(=O)c(C(=O)O)c1O` [Cpd 46, (R)-10-((3-fluoropyrrolidin-1-yl)methyl)-4-hydroxy-9-methyl-2-oxo-1,2,5,6,7,9-hexahydropyrido[3′,2′:6,7]cyclohepta[1,2-f]indole-3-carboxylic acid hydrochloride], the minimum inhibitory concentration (MIC) is 3.5 to 12.5 µg/mL in assay [1], less than 1 µg/mL in assay [2] and 1 to 3.5 µg/mL in assay [3].

Consider `CN(C)C1CCN(Cc2cc3cc4c(cc3n2C)CCCc2c-4[nH]c(=O)c(C(=O)O)c2O)C1.Cl.Cl` (stereo not drawn) [Cpd 47, 10-((3-(dimethylamino)pyrrolidin-1-yl)methyl)-4-hydroxy-9-methyl-2-oxo-1,2,5,6,7,9-hexahydropyrido[3′,2′:6,7]cyclohepta[1,2-f]indole-3-carboxylic acid dihydrochloride], for which the MIC was 3.5 to 12.5 µg/mL in assay [1], less than 1 µg/mL in assay [2] and 3.5 to 12.5 µg/mL in assay [3].

In the case of `CN(C)Cc1cc2cc3c(cc2n1C)CCCc1c-3[nH]c(=O)c(C(=O)O)c1O.Cl` [Cpd 48, 10-((dimethylamino)methyl)-4-hydroxy-9-methyl-2-oxo-1,2,5,6,7,9-hexahydropyrido[3′,2′:6,7]cyclohepta[1,2-f]indole-3-carboxylic acid hydrochloride], the MIC in assay [1] is 3.5 to 12.5 µg/mL; in assay [2], less than 1 µg/mL; in assay [3] it was less than 1 µg/mL.

On to `Cl.Cl.Cn1c(CN2CC[C@H](N)C2)cc2cc3c(cc21)CCCc1c-3[nH]c(=O)c(C(=O)O)c1O` [Cpd 49, (S)-10-((3-aminopyrrolidin-1-yl)methyl)-4-hydroxy-9-methyl-2-oxo-1,2,5,6,7,9-hexahydropyrido[3′,2′:6,7]cyclohepta[1,2-f]indole-3-carboxylic acid dihydrochloride], for which the MIC was in the range of 12.5 to 150 µg/mL in assay [1], 1 to 3.5 µg/mL in assay [2] and 3.5 to 12.5 µg/mL in assay [3].

In the case of `Cl.Cn1c(CN2CCCC2)cc2cc3c(cc21)CCCc1c-3[nH]c(=O)c(C(=O)O)c1O` [Cpd 50, 4-hydroxy-9-methyl-2-oxo-10-(pyrrolidin-1-ylmethyl)-1,2,5,6,7,9-hexahydropyrido[3′,2′:6,7]cyclohepta[1,2-f]indole-3-carboxylic acid hydrochloride], the MIC in assay [1] is 3.5 to 12.5 µg/mL; in assay [2], less than 1 µg/mL; in assay [3] it was less than 1 µg/mL.

Consider `Cl.Cn1c(CN2CCC(O)C2)cc2cc3c(cc21)CCCc1c-3[nH]c(=O)c(C(=O)O)c1O` (stereo not drawn) [Cpd 51, 4-hydroxy-10-((3-hydroxypyrrolidin-1-yl)methyl)-9-methyl-2-oxo-1,2,5,6,7,9-hexahydropyrido[3′,2′:6,7]cyclohepta[1,2-f]indole-3-carboxylic acid hydrochloride], for which the MIC in assay [1] is 3.5 to 12.5 µg/mL; in assay [2] it was less than 1 µg/mL; in assay [3] it was 1 to 3.5 µg/mL.

Consider `Cl.Cn1c(CNCc2cccnc2)cc2cc3c(cc21)CCCc1c-3[nH]c(=O)c(C(=O)O)c1O` [Cpd 52, 4-hydroxy-9-methyl-2-oxo-10-(((pyridin-3-ylmethyl)amino)methyl)-1,2,5,6,7,9-hexahydropyrido[3′,2′:6,7]cyclohepta[1,2-f]indole-3-carboxylic acid hydrochloride], for which the MIC in assay [1] is 3.5 to 12.5 µg/mL; in assay [2] it was less than 1 µg/mL; in assay [3], 3.5 to 12.5 µg/mL.

For `CNCc1cc2cc3c(cc2n1C)CCCc1cc(C(=O)O)c(=O)[nH]c1-3.Cl` [Cpd 53, 9-methyl-10-((methylamino)methyl)-2-oxo-1,2,5,6,7,9-hexahydropyrido[3′,2′:6,7]cyclohepta[1,2-f]indole-3-carboxylic acid hydrochloride], the MIC in assay [1] was 12.5 to 150 µg/mL; in assay [2] it was less than 1 µg/mL; in assay [3] it was 1 to 3.5 µg/mL.

For the compound `CCNCc1cc2cc3c(cc2n1C)CCCc1cc(C(=O)O)c(=O)[nH]c1-3.Cl` [Cpd 54, 10-((ethylamino)methyl)-9-methyl-2-oxo-1,2,5,6,7,9-hexahydropyrido[3′,2′:6,7]cyclohepta[1,2-f]indole-3-carboxylic acid hydrochloride], the MIC in assay [1] was 12.5 to 150 µg/mL; in assay [2], less than 1 µg/mL; in assay [3], less than 1 µg/mL.

In the case of `CC(C)NCc1cc2cc3c(cc2n1C)CCCc1cc(C(=O)O)c(=O)[nH]c1-3.Cl` [Cpd 55, 10-((isopropylamino)methyl)-9-methyl-2-oxo-1,2,5,6,7,9-hexahydropyrido[3′,2′:6,7]cyclohepta[1,2-f]indole-3-carboxylic acid hydrochloride], the MIC in assay [1] was 12.5 to 150 µg/mL; in assay [2], less than 1 µg/mL; in assay [3], 1 to 3.5 µg/mL.

Consider `Cl.Cn1c(CNC(C)(C)C)cc2cc3c(cc21)CCCc1cc(C(=O)O)c(=O)[nH]c1-3` [Cpd 56, 10-((tert-butylamino)methyl)-9-methyl-2-oxo-1,2,5,6,7,9-hexahydropyrido[3′,2′:6,7]cyclohepta[1,2-f]indole-3-carboxylic acid hydrochloride], for which the MIC in assay [1] was 12.5 to 150 µg/mL; in assay [2] it was less than 1 µg/mL; in assay [3] it was 1 to 3.5 µg/mL.

Consider `Cl.Cn1c(CN2CCC2)cc2cc3c(cc21)CCCc1cc(C(=O)O)c(=O)[nH]c1-3` [Cpd 57, 10-(azetidin-1-ylmethyl)-9-methyl-2-oxo-1,2,5,6,7,9-hexahydropyrido[3′,2′:6,7]cyclohepta[1,2-f]indole-3-carboxylic acid hydrochloride], for which the minimal inhibitory concentration (MIC) in assay [1] was 12.5 to 150 µg/mL; in assay [2], less than 1 µg/mL; in assay [3], less than 1 µg/mL.

As for `CNCc1cc2cc3c(cc2n1C)CCCCc1c-3[nH]c(=O)c(C(=O)O)c1O.Cl` [Cpd 58, 4-hydroxy-10-methyl-11-((methylamino)methyl)-2-oxo-2,5,6,7,8,10-hexahydro-1H-pyrido[3′,2′:7,8]cycloocta[1,2-f]indole-3-carboxylic acid hydrochloride], the figures for the MIC in assay [1], in assay [2] and in assay [3] were 3.5 to 12.5 µg/mL, less than 1 µg/mL and less than 1 µg/mL, respectively.

As to `CCNCc1cc2cc3c(cc2n1C)CCCCc1c-3[nH]c(=O)c(C(=O)O)c1O.Cl` [Cpd 59, 11-((ethylamino)methyl)-4-hydroxy-10-methyl-2-oxo-2,5,6,7,8,10-hexahydro-1H-pyrido[3′,2′:7,8]cycloocta[1,2-f]indole-3-carboxylic acid hydrochloride], the MIC in assay [1] was 3.5 to 12.5 µg/mL; in assay [2] it was less than 1 µg/mL; in assay [3] it was less than 1 µg/mL.

On to `CNCc1cc2c3c(ccc2n1C)-c1[nH]c(=O)c(C(=O)O)c(O)c1CCC3.Cl` [Cpd 60, 7-hydroxy-1-methyl-2-((methylamino)methyl)-9-oxo-1,4,5,6,9,10-hexahydropyrido[2′,3′:3,4]cyclohepta[1,2-e]indole-8-carboxylic acid hydrochloride], for which the MIC in assay [1] fell in the range of 12.5 to 150 µg/mL; in assay [2] it was 3.5 to 12.5 µg/mL; in assay [3], 12.5 to 150 µg/mL.

On to `CCNCc1cc2c3c(ccc2n1C)-c1[nH]c(=O)c(C(=O)O)c(O)c1CCC3.Cl` [Cpd 61, 2-((ethylamino)methyl)-7-hydroxy-1-methyl-9-oxo-1,4,5,6,9,10-hexahydropyrido[2′,3′:3,4]cyclohepta[1,2-e]indole-8-carboxylic acid hydrochloride], for which the minimal inhibitory concentration (MIC) in assay [1] lay in the range of 12.5 to 150 µg/mL; in assay [2], 3.5 to 12.5 µg/mL; in assay [3], 3.5 to 12.5 µg/mL.

On to `CNCc1cc2cc3c(cc2n1C)C(C)CCc1c-3[nH]c(=O)c(C(=O)O)c1O.Cl` (stereo not drawn) [Cpd 62, 4-hydroxy-7,9-dimethyl-10-((methylamino)methyl)-2-oxo-1,2,5,6,7,9-hexahydropyrido[3′,2′:6,7]cyclohepta[1,2-f]indole-3-carboxylic acid hydrochloride], for which the MIC in assay [1] is 12.5 to 150 µg/mL; in assay [2], 1 to 3.5 µg/mL; in assay [3], 3.5 to 12.5 µg/mL.

In the case of `CCNCc1cc2cc3c(cc2n1C)C(C)CCc1c-3[nH]c(=O)c(C(=O)O)c1O.Cl` (stereo not drawn) [Cpd 63, 10-((ethylamino)methyl)-4-hydroxy-7,9-dimethyl-2-oxo-1,2,5,6,7,9-hexahydropyrido[3′,2′:6,7]cyclohepta[1,2-f]indole-3-carboxylic acid hydrochloride], the MIC in assay [1] was in the range of 12.5 to 150 µg/mL; in assay [2], 1 to 3.5 µg/mL; in assay [3] it was 3.5 to 12.5 µg/mL.

On to `CC(C)NCc1cc2cc3c(cc2n1C)C(C)CCc1c-3[nH]c(=O)c(C(=O)O)c1O.Cl` (stereo not drawn) [Cpd 64, 4-hydroxy-10-((isopropylamino)methyl)-7,9-dimethyl-2-oxo-1,2,5,6,7,9-hexahydropyrido[3′,2′:6,7]cyclohepta[1,2-f]indole-3-carboxylic acid hydrochloride], for which the MIC in assay [1] was 12.5 to 150 µg/mL; in assay [2], 1 to 3.5 µg/mL; in assay [3] it was 3.5 to 12.5 µg/mL.

As to `CC1CCc2c([nH]c(=O)c(C(=O)O)c2O)-c2cc3cc(CNC(C)(C)C)n(C)c3cc21.Cl` (stereo not drawn) [Cpd 65, 10-((tert-butylamino)methyl)-4-hydroxy-7,9-dimethyl-2-oxo-1,2,5,6,7,9-hexahydropyrido[3′,2′:6,7]cyclohepta[1,2-f]indole-3-carboxylic acid hydrochloride], the MIC in assay [1] was in the range of 3.5 to 12.5 µg/mL; in assay [2], 1 to 3.5 µg/mL; in assay [3], 3.5 to 12.5 µg/mL.

The record behind these values is patent publication US20150038438A1, “ANTIBACTERIAL COMPOUNDS AND METHODS FOR USE” (PTC THERAPEUTICS, INC., priority 2011, published 2015).
